Legend:
[1] = system: ATF3; assay: ATF3 mRNA, quantitative PCR, KG-1; type: cell-based, human; conditions: KG-1, 100 nM Compound D or greater
Experimental: Compound D regulates UPR stress RNAs, ATF3 and CHOP, and nonsense-mediated decay (NMD) RNAs, SRSF3 and SRSF6, in KG-1 cells in both dose- and time-dependent manners. KG-1 cells were plated in 10 cm^2 dishes and incubated overnight. The following day, KG-1 cells were treated with a 6-point dose response (0, 3, 10, 30, 100, 300 nM) of Compound D and incubated for 2, 4, 8, and 20 hours. Cells were removed from dishes and cell pellets were prepared for RNA isolation (Qiagen RNA isolation kit). Total RNA was quantitated using NanoDrop spectrophotometer and cDNA was reversely transcribed using 1 μg total RNA. Quantitative PCR was performed in replicates for each sample using primer sets for ATF3, CHOP, and both NMD and normal transcripts of SRSF3 and SRSF6. Data was doubly normalized to the 18S housekeeping gene and 2 hour DMSO control. Normalized RNA expression (y-axis) versus drug concentration in nM (x-axis) for each time point was plotted. SRSF3-1 NMD and SRSF6-1 NMD depict amplification of NMD transcript for SRSF3 and SRSF6, respectively. SRSF3-3 Normal and SRSF6-3 Normal depict amplification of normal transcript for SRSF3 and SRSF6 genes, respectively. […] FIGS. 29A-29F show effects of Compound D treatment on UPR and NMD pathways in KG-1 cells. […] Additionally, 100 nM Compound D or greater induced the mRNA levels of ATF3 and DDIT3 (CHOP) approximately 100-fold and 10-fold, respectively. […]

[2] = system: proteins in the UPR pathway, PARP; assay: UPR pathway proteins and PARP cleavage, western blot, healthy PBMCs; type: cell-based, human; conditions: 10 nM Compound D
[3] = system: nontumorigenic human hepatocellular cell line THLE-2; assay: Anti-proliferation, THLE-2; type: cell-based; conditions: THLE-2 (data not shown)
[4] = molecular target: GSPT1 (Homo sapiens, UniProt P15170+Q96SW2); assay: GSPT1 degradation in NB4 cell line; type: cell-based; parameters: endogenous in cells; conditions: NB4 cell line
GSPT1, sequence (P15170 1-637 isoform P15170-3): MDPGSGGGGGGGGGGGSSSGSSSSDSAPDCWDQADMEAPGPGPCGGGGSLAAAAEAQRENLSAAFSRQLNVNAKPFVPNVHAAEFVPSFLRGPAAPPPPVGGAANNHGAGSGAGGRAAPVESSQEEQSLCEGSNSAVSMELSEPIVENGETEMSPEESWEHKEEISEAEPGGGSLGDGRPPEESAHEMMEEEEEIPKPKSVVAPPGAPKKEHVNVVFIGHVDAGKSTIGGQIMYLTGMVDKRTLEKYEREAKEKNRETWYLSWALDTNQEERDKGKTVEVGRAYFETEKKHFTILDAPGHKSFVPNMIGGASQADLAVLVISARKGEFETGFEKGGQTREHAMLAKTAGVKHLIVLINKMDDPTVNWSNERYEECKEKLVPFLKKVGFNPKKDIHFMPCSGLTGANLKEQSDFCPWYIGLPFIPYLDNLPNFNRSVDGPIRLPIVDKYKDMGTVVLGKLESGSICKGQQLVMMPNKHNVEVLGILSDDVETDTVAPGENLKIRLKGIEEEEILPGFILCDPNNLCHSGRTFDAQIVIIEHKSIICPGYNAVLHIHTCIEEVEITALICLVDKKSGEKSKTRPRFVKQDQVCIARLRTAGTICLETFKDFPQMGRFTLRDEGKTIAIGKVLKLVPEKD
GSPT1, sequence (Q96SW2 whole entry): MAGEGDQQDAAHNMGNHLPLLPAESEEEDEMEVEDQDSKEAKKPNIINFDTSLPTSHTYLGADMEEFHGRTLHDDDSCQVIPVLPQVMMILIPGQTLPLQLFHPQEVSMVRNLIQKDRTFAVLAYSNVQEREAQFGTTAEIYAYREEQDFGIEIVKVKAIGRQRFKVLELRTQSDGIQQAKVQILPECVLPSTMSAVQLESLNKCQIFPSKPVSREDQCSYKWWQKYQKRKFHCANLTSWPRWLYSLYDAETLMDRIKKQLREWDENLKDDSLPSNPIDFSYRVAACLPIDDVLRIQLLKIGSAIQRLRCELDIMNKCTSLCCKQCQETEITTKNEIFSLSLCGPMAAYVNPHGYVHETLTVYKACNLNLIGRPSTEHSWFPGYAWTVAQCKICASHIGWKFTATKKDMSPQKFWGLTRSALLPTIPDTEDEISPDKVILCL
GSPT1, sequence (Q16531 whole entry partner): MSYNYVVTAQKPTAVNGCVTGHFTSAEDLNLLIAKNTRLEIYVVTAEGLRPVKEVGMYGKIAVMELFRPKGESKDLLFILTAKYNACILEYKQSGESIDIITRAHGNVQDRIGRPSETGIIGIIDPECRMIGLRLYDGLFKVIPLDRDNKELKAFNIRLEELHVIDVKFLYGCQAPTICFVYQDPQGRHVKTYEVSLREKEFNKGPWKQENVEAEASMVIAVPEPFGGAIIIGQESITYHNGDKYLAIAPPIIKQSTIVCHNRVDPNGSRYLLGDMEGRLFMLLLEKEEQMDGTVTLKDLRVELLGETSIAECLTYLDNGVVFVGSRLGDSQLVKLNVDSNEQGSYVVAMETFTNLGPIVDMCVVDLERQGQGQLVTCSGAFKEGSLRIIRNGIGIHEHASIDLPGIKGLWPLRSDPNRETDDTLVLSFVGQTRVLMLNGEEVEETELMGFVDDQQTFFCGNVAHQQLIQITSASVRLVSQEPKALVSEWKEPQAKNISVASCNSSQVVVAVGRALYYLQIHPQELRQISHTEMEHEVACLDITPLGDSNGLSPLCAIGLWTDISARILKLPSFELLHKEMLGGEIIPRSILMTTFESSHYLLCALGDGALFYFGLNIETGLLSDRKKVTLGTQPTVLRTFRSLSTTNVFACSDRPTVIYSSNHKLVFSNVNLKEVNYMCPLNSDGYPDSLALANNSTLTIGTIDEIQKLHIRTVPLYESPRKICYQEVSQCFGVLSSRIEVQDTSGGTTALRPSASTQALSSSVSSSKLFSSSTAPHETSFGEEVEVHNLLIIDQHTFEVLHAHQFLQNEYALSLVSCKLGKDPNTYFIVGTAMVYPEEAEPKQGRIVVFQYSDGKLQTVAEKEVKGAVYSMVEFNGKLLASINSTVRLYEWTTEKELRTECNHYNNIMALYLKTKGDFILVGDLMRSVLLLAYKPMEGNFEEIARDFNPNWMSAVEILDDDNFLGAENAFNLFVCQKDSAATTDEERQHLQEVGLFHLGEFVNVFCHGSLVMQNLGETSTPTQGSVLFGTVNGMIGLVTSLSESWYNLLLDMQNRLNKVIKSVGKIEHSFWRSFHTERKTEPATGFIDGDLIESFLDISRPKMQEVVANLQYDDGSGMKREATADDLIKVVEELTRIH

[5] = system: NB-4 cells; assay: Anti-proliferation 72-hour CTG assay, NB-4; type: cell-based; conditions: Homo sapiens; NB-4, 72-hour CTG assay; read-out: IC50 of the anti-proliferative effect
Experimental: (§1) A plethora of AML cell lines were treated with serial dilutions of Compound D. IC50 value of the anti-proliferation effect of Compound D (as determined in 72-hour CTG assays) in each cell line is summarized in Table 1.

[6] = system: p-eIF2α; assay: p-eIF2α immunoblot, OCI-AML2; type: cell-based, human; conditions: 300 μg/ml G418 or 200 nM Compound D
Experimental: It is known that amino acid starvation causes GCN2 activation, which phosphorylates eIF2α. Because GSPT1 mediates normal translation termination, it is hypothesized that depletion of GSPT1 by Compound D may cause readthrough of stop codons. Whether the translational readthrough induced by Compound D contributes to the increased levels of p-eIF2α was investigated. OCI-AML2 cells stably expressing the Fluc/Nluc-G36A readthrough reporter were treated with 300 μg/ml G418 or 200 nM Compound D for 2, 4, 6, 8, 10, 12, or 16 hours. The levels of p-eIF2α were measured by immunoblot analysis. AML2 readthrough assay was conducted to measure the readthrough reporter.

[7] = system: healthy donor PBMCs; assay: Anti-proliferation, healthy donor PBMCs; type: cell-based; conditions: Homo sapiens, PBMC; healthy donor PBMCs (data not shown)
[8] = system: MV-4-11 cells; assay: Anti-proliferation 72-hour CTG assay, MV-4-11; type: cell-based; conditions: Homo sapiens, MV4-11; MV-4-11, 72-hour CTG assay; read-out: IC50 of the anti-proliferative effect
Experimental: as §1

## O=C1CCC(N2Cc3cc(CNC(=O)C(F)(F)c4ccc(Cl)cc4)ccc3C2=O)C(=O)N1 (centres unmarked) [Compound D, 2-(4-chlorophenyl)-N-((2-(2,6-dioxopiperidin-3-yl)-1-oxoisoindolin-5-yl)methyl)-2,2-difluoroacetamide]
[1]
  induction of ATF3 mRNA level: approximately 100 fold
[2]
  induction of proteins in the UPR pathway or cleavage of PARP: did not occur
[3]
  IC50: ~10 µM
[4]
  effect on GSPT1 level: induced degradation
[5]
  IC50: 17 nM
[6]
  levels of p-eIF2α: increased the levels
[7]
  IC50: > 10 µM
[8]
  IC50: 29 nM

Reference: patent US12474342B2, “Methods for treating cancer and the use of biomarkers as a predictor of clinical sensitivity to therapies” (CELGENE CORPORATION, priority 2016, dated 2025)
